Test results: patent US20230013244A1 (BioIncept, LLC, priority 2014, published 2023)

Assays:
Lymphocytes = assay: FITC-PIF binding to mare immune cells, flow cytometry, lymphocytes; type: cell-based
Excerpt: (§1) Method: whole blood was collected from jugular vein of pregnant (n=4) and non-pregnant (n=8) mares into lithium heparin vacutainers. Whole blood was layered over histopaque (Sigma) density gradient and red cells were allowed to settle through the gradient, leaving a leukocyte-rich plasma layer above. Cells were washed twice in sterile PBS and any remaining RBCs lysed with 0.16 M ammonium chloride solution. […] Cell types were separated based upon their scatter characteristics. […] FIG. 20 and Table 20 show mean+/−SEM in both pregnant and non-pregnant mares, and depicts binding characteristics showing significant differences between FITC-PIF and control, P<0.001.

Monocytes = assay: FITC-PIF binding to mare immune cells, flow cytometry, monocytes; type: cell-based
Excerpt: as §1

[1] = system: PBMCs (CD3+, CD4+/CD25+/FoxP3+, CD8+/CD25+ cells); assay: FITC-PIF binding to naive T-cell subsets of PBMCs, two- and three-color flow cytometry; type: cell-based, human
Granulocytes = assay: FITC-PIF binding to mare immune cells, flow cytometry, granulocytes; type: cell-based
Excerpt: as §1

Sequence: GRVDPSNKSMPKDIA [PIFscr, scrambled PIF, control peptide]
- binding to Lymphocytes, Mean (Lymphocytes; Non-pregnant mares, 1 ug/ml): 0.27
- binding to Lymphocytes, Mean (Lymphocytes; Pregnant mares, 1 ug/ml): 0.12
- binding to Lymphocytes, Mean (Lymphocytes; Pregnant mares, 5 ug/ml): 0.78
- binding to Monocytes, Mean (Monocytes; Non-pregnant mares, 1 ug/ml): 1.10
- binding to Monocytes, Mean (Monocytes; Non-pregnant mares, 5 ug/ml): 5.20
- binding to Monocytes, Mean (Monocytes; Pregnant mares, 1 ug/ml): 0.78
- binding to CD4+/CD25+/FoxP3+ cells ([1]; 0-100 uM): minimal binding
- binding to CD3+/CD4+ cells ([1]; FIG. 10A): not replicated
- binding to Granulocytes, Mean (Granulocytes; Non-pregnant mares, 1 ug/ml): 0.26
- binding to Granulocytes, Mean (Granulocytes; Pregnant mares, 1 ug/ml): 0.09
- binding to Granulocytes, Mean (Granulocytes; Pregnant mares, 5 ug/ml): 0.93
